Experimental data as given in patent US11014934B2, “Antiseptic drug” (AO “TATKHIMFARMPREPARATY”, priority 2017, dated 2021).
Like-named read-outs stand apart in the source and are kept apart here.

Columns and labels:
[1] = system: Rhizopus oryzae RCPF F-1537/1722; test: Antifungal activity, 2-fold serial dilutions in Saburo glucose broth; assay type: cell-based, Rh. oryzae; conditions: for MIC: read-out: The value of the MIC
Experimental: The study of the antifungal activity of compound I in vitro was carried out in accordance with [Metodicheskiye rekomendatsii No 2. Mikologicheskoye issledovaniye ob″yektov okruzhayushchey sredy i opredeleniye protivogribkovoy aktivnosti razlichnykh veshchestv.—GOU DPO SPbMAPO NII meditsinskoy mikologii im. P. N. Kashkina, GBOU VPO SZGMU im. I. I. Mechnikova Minzdrava. SPb.: Izd. Dom SPbMAPO.—2008.—S. 16. Methodological recommendations No 2. Mycological examination of environmental objects and determination of antifungal activity of various substances.—State Educational Institution of St. Petersburg Medical Academy of Postgraduate Education with Scientific Research Institute of Medical Mycology named after P. N. Kashkin, State Educational Institution of Higher Professional Education North-West State Medical University named after I. I. Mechnikov, Ministry of Health. St. Petersburg.:: Publishing House SPbMAPO.—2008.—P. 16].
The study of the antifungal activity of substances in vitro was carried out in a liquid nutrient medium (Saburo glucose broth) in biological tubes by the method of 2-fold serial dilutions. In test tubes, three parallel series of dilutions of the test substance were prepared in the following way.
Saburo's liquid broth was sterilely poured in 3 ml into each tube; 4.5 ml was poured into the first tube of the row. A total of 14 tubes were used in a row; of which the last was a control one. […] The growth of cultures was initially assessed visually, comparing the growth of microorganisms in the presence of test compounds with the growth of culture without them. […] The first lowest concentration of the substance (from a series of consecutive dilutions), where the growth of fungi was suppressed or not visually determined, was considered the minimum inhibitory concentration (MIC).
For the preparation of inoculum, were respectively used pure (2-5) days cultures of yeast and mycelial fungi, grown on Saburo's dense nutrient broth. […] The inoculum was used within 15 minutes after preparation; the purity of the fungal strains was monitored before each experiment. […]

[2] = system: gram-positive microorganisms in the biofilm; test: Antibacterial activity against cells immersed in a biofilm matrix (CFU, drop plate); assay type: cell-based
Experimental: To determine the effectiveness of the antibiotic against bacteria in […], bacteria were grown in Basal medium for 3 days at a temperature of 37° C. without swinging to obtain a dense biofilm [A. R Kayumov, Khakimullina E., Sharafutdinov I, Trizna E., Latypova L., Lien Thi, Margulis A., Bogachev M, Kurbangalieva A. Inhibition of biofilm formation in Bacillus subtilis by new halogenated furanoses. J. Antibiotics.—2014.—V. 68.—No 5.—P. 297-301.]. Then the biofilm was washed with a sterile 0.9% NaCl solution and fresh sterile medium was poured. Antiseptics were added to concentrations (1-16)×MBC (minimum bactericidal concentration) and incubated for 24 hours. Then the culture fluid was removed from the wells, washed once with 0.9% NaCl solution to remove non-adherent cells, and cell viability in biofilms was evaluated by counting CFU by Drop plate analysis [B. Herigstad, M Hamilton, J. Heersink How to optimize the drop plate method for enumerating bacteria. J Microbiol Methods.—2001.—V. 44.—P. 121-129]. To do this, the biofilm was mechanically removed from the surface and homogenized in 0.9% NaCl by pipetting and ultrasonic treatment. Then, serial 10-fold dilutions of the bacterial suspension in 0.9% NaCl were prepared, and 5 μI of each suspension were transferred to plates with dense nutrient medium. CFU was counted from drops containing 5-10 colonies.
The results of the study of antimicrobial activity against cells of the studied strains immersed in the biofilm matrix, in comparison with miramistin and benzalkonium chloride, are presented in FIGS. 1 and 2.

## alkyldimethyl(phenylmethyl) ammonium chloride [Benzalconium chloride]
[1]; Rh. nigricans RCPFF-l537/1722
  The value of the MIC: 15.6 µg/mL

## CCCCCCCCCCCC[N+](C)(C)Cc1cnc(C[N+](C)(C)CCCCCCCCCCCC)c2c1COC(CC)O2 (centres unmarked) [Compound I, 5,8-(Bis(methylene (N, N-dimethyl-N-dodecylammonium))-2-ethyl-4H-[1,3]dioxino [4,5-c]pyridiniumdichloride]
[2]; same decrease of CFU at lower excess of MBC
  higher activity compared to miramistin and benzalkonium chloride: 2 fold
[1]; Rh. nigricans RCPFF-l537/1722
  MIC: 62.5 µg/mL

## CCCCCCCCCCCCCC(=O)NCCC[N+](C)(C)Cc1ccccc1.O.[Cl-] [Miramistin, benzyldimethyl [3-(myristoylamino)propyl]-ammonium chloride monohydrate]
[2]
  less active than benzalkonium chloride: 2 times
[1]
  MIC: 62.5 µg/mL
